Source: ChEMBL document CHEMBL1157941, “Sapinmusaponins F-J, bioactive tirucallane-type saponins from the galls of Sapindus mukorossi” (J Nat Prod, 2006)

Tests used:
Platelet [1] = test: Inhibition of arachidonic acid-induced platelet aggregation in citreated rabbit platelet-rich plasma by turbidimetric method; assay type: functional; settings: Oryctolagus cuniculus
Platelet [2] = test: Inhibition of […]-induced platelet aggregation in citreated rabbit platelet-rich plasma by turbidimetric method; assay type: functional; settings: Oryctolagus cuniculus
Platelet [3] = test: Inhibition of U46619-induced platelet aggregation in citreated rabbit platelet-rich plasma by turbidimetric method; assay type: functional; settings: Oryctolagus cuniculus
[4] = Cytotoxicity against rabbit platelet assessed as LDH release; assay type: cell-based, Oryctolagus cuniculus; design: concentration or dose not given beside the values
Platelet [5] = test: Inhibition of thrombin-induced platelet aggregation in citreated rabbit platelet-rich plasma by turbidimetric method; assay type: functional; settings: Oryctolagus cuniculus
Raji [6] = test: Inhibition of 12-O-tetradecanoylphorbol-13-acetate induced EBV-early antigen activation in human Raji cells assessed as EA activation at 1000 molar ratio after 48 hrs relative to TPA; assay type: cell-based; design: scale not given: the % may be the effect or the level left; settings: human gammaherpesvirus 4
Raji [7] = test: Inhibition of 12-O-tetradecanoylphorbol-13-acetate induced EBV-early antigen activation in human Raji cells assessed as EA activation at 100 molar ratio after 48 hrs relative to TPA; assay type: cell-based; design: scale not given: the % may be the effect or the level left; settings: human gammaherpesvirus 4
Raji [8] = test: Inhibition of 12-O-tetradecanoylphorbol-13-acetate induced EBV-early antigen activation in human Raji cells assessed as EA activation at 10 molar ratio after 48 hrs relative to TPA; assay type: cell-based; design: scale not given: the % may be the effect or the level left; settings: human gammaherpesvirus 4
[9] = Cytotoxicity against human Raji cells assessed as cell viability at 1000 molar ratio by trypan blue assay; assay type: cell-based; settings: read-out: Activity
Raji [10] = test: Inhibition of 12-O-tetradecanoylphorbol-13-acetate induced EBV-early antigen activation in human Raji cells assessed as EA activation at 500 molar ratio after 48 hrs relative to TPA; assay type: cell-based; design: scale not given: the % may be the effect or the level left; settings: human gammaherpesvirus 4

IC50 (Platelet [1]) [µM]	IC50 (Platelet [2]) [µM]	IC50 (Platelet [3]) [µM]	IC50 (Platelet [5]) [µM]	SMILES	Activity [4] [%]	Activity (Raji [6]) [%]	Activity (Raji [7]) [%]	Activity (Raji [8]) [%]	viability at 1000 molar ratio [9] [%]	Activity (Raji [10]) [%]
> 100	> 100	> 100	> 100	CC(C)=CCC(O)[C@@](C)(O)[C@H]1CC[C@]2(C)[C@@H]1CC[C@@H]1[C@@]3(C)CC[C@H](O[C@@H]4O[C@H](CO)[C@@H](O)[C@H](O)[C@H]4O[C@@H]4O[C@@H](C)[C@H](O)[C@@H](O)[C@H]4O)C(C)(C)[C@@H]3C[C@H](O)[C@]12C (some centres undefined) [SAPINMUSAPONIN A]	62.3					
> 100	> 100	> 100	> 100	CC(C)=CC(O)C(O)[C@@](C)(O)[C@H]1CC[C@]2(C)[C@@H]1CC[C@@H]1[C@@]3(C)CC[C@H](O[C@@H]4O[C@H](CO)[C@@H](O)[C@H](O)[C@H]4O[C@@H]4O[C@@H](C)[C@H](O)[C@@H](O)[C@H]4O)C(C)(C)[C@@H]3C[C@H](O)[C@]12C (some centres undefined) [SAPINMUSAPONIN B]	62.3					
> 100	> 100	> 100	> 100	C[C@@H]1O[C@@H](O[C@H]2[C@H](O[C@H]3CC[C@]4(C)[C@H]5CC[C@@H]6[C@@H]([C@](C)(O)C(O)/C=C/C(C)(C)O)CC[C@@]6(C)[C@]5(C)[C@@H](O)C[C@H]4C3(C)C)O[C@H](CO)[C@@H](O)[C@@H]2O)[C@H](O)[C@H](O)[C@H]1O (some centres undefined) [SAPINMUSAPONIN C]	62.3					
> 100	> 100	> 100	> 100	COC(C)(C)/C=C/C(O)[C@@](C)(O)[C@H]1CC[C@]2(C)[C@@H]1CC[C@@H]1[C@@]3(C)CC[C@H](O[C@@H]4O[C@H](CO)[C@@H](O)[C@H](O)[C@H]4O[C@@H]4O[C@@H](C)[C@H](O)[C@@H](O)[C@H]4O)C(C)(C)[C@@H]3C[C@H](O)[C@]12C (some centres undefined) [SAPINMUSAPONIN D]	62.3					
6.7	7.7	3.4	8.4	CO[C@H]1O[C@H](C=C(C)C)C[C@H]1[C@@H]1CC[C@]2(C)C3=CC[C@H]4C(C)(C)[C@@H](O[C@@H]5O[C@H](CO[C@@H]6O[C@@H](C)[C@H](O)[C@@H](O)[C@H]6O)[C@@H](O)[C@H](O)[C@H]5O)CC[C@]4(C)[C@H]3CC[C@@]12C [SAPINMUSAPONIN F]	< 10	9.1	82.6	100	60	53.6
12.5	13.5	5.4	8.9	CO[C@@H]1O[C@H](C=C(C)C)C[C@H]1[C@@H]1CC[C@]2(C)C3=CC[C@H]4C(C)(C)[C@@H](O[C@@H]5O[C@H](CO[C@@H]6O[C@@H](C)[C@H](O)[C@@H](O)[C@H]6O)[C@@H](O)[C@H](O)[C@H]5O)CC[C@]4(C)[C@H]3CC[C@@]12C [SAPINMUSAPONIN G]	< 10	9.7	83.7	100	60	53.9
71.5	4.6	16.3	> 100	CO[C@@H]1O[C@H](C=C(C)C)C[C@H]1[C@@H]1CC[C@]2(C)C3=CC[C@H]4C(C)(C)[C@@H](O[C@@H]5O[C@H](CO)[C@@H](O)[C@H](O)[C@H]5O[C@@H]5O[C@@H](C)[C@H](O)[C@@H](O)[C@H]5O)CC[C@]4(C)[C@H]3CC[C@@]12C [SAPINMUSAPONIN H]	< 10	11	83.7	100	60	54.4
2.3	11.8		41.4	CO[C@H]1O[C@H](C=C(C)C)C[C@H]1[C@@H]1CC[C@]2(C)C3=CC[C@H]4C(C)(C)[C@@H](O[C@@H]5O[C@H](CO[C@@H]6O[C@@H](C)[C@H](O)[C@@H](O)[C@H]6O)[C@@H](O)[C@H](O)[C@H]5O[C@@H]5O[C@@H](C)[C@H](O)[C@@H](O)[C@H]5O)CC[C@]4(C)[C@H]3CC[C@@]12C [SAPINMUSAPONIN I]	< 10	14.3	82.6	100	60	60.5
